# Reference: patent US7041706B2, “Method for treating crohn's disease” (priority 2002, dated 2006)
# System: Crohn's Disease (CD)
# Experiment: Oral limonene regimen in two patients suffering from Crohn's Disease (case reports, Examples 2 and 3)
# Settings: for anal bleeding under prior medication regimen: Example 3 subject before limonene, combined regimen of six tablets ASACOL (mesalamine) daily and two 50 mg tablets IMURAN (azathioprine) daily
# Protocol: As used herein, “treatment” shall mean temporary or permanent alleviation or elimination of CD symptoms and/or intestinal damage.
# A preferred adult dose of limonene is about 400 to 1,000 milligrams, more preferably 1,000 mg, administered once daily, typically for a period of 10 to 30 days. Other dosing regimens, such as every other day and twice weekly regimens, may be desired, depending upon the patient. In fact, it will be appreciated by those of ordinary skill in the art that the amount of limonene, dosing schedule, and duration of treatment may vary depending upon the individual's age, weight, and severity of the CD.
# Upon diagnosis, the patient underwent a partial small bowel surgical resection wherein about one foot of intestine and appendix were surgically removed.
# To alleviate the symptoms of CD, the subject was taking the following prescriptions and over-the-counter medications: 1 Cortisone injection every six months; 1 tablet of 2.5 mg diphenoxylate/0.025 mg atropine every 8 hours as needed; twelve tablets (2.0 mg each) of IMODIUM (loperamide) every day as needed.
# Prior to treatment with the limonene regimen, the subject discontinued taking their prescription and OTC medications for CD except for one cortisone injection in April 2001 and about 1 to 2 tablets of IMODIUM (lopcramide) per month. They began taking 1000 mg d-limonene (98%) on March 2001. […] The subject then began taking 400 mg of d-limonene once a week for two weeks, followed by 400-mg d-limonene twice a week for three weeks. The subject was then put on a regimen of 1000 mg d-limonene take once a week for three weeks, increasing to 1000 mg twice a week for three weeks. After that series, the subject began taking 1000 mg d-limonene every other day for three weeks. The subject continued to take 1000 mg d-limonene twice a week for maintenance.
# A subject diagnosed with CD in November 1999 after undergoing a colonoscopy.
# The subject began treatment with the inventive limonene method in January 2001, taking 1000 mg of d-limonene daily. […] For maintenance therapy, the patient continued to take three 1000 mg capsules of d-limonene per week.
SMILES,"adverse effect on first dosing (Example 2, subject with CD, 1000 mg d-limonene (98%) oral, regimen discontinued immediately)","anal bleeding (Example 2, subject with CD, during treatment, when taking 1000 mg d-limonene)","abdominal pain or cramping (Example 2 subject, during maintenance, 1000 mg d-limonene twice a week)","normal stools per day (Example 2 subject, during maintenance, 1000 mg d-limonene twice a week, about ten stools/day before treatment)","anal bleeding (Example 3, subject with CD, about seven days after start of 1000 mg d-limonene daily)","stools per day (Example 3, subject with CD, about seven days after start of 1000 mg d-limonene daily, ten stools/day before)",anal bleeding under prior medication regimen
C=C(C)[C@H]1CC=C(C)CC1 [d-limonene],severe acid reflux,stopped almost immediately,no abdominal pain or cramping,1 to 2 times a day,no anal bleeding,1–2 stools per day,
"Nc1ccc(O)c(C(=O)O)c1 [ASACOL, mesalamine, reference compound]",,,,,,,"bleeding ceased for about six to eight months, and then reoccurred"
"Cn1cnc([N+](=O)[O-])c1Sc1ncnc2nc[nH]c12 [IMURAN, azathioprine, reference compound]",,,,,,,"bleeding ceased for about six to eight months, and then reoccurred"
